Measurements: patent US8273794B2, “Compounds and compositions for delivering active agents” (Emisphere Technologies, Inc., priority 2004, dated 2012)
Several values for one entry are separate records, joined by “and”; a condition that tells them apart may be missing. Identical values can stand only once.

Experiments:
[1] = Human recombinant insulin oral delivery in rats, whole blood glucose; type: in vivo, Sprague-Dawley rats; conditions: oral (liquid dose), delivery agent compound dose 200 mg/kg, insulin dose 0.5 mg/kg
Protocol: (§1) Insulin (human recombinant) was obtained from ICN Biomedicals (Aurora, Ohio) as a bulk powder. To prepare stock solutions, insulin was dissolved in deionized water (pH˜6.5) to obtain a concentration of 15 mg/ml. Stock solutions were kept frozen at −20° C. in 1.0-ml aliquots until used. For dosing solutions, the delivery agent compound was dissolved in deionized water to obtain a final concentration of 200 mg/ml. The free acid form of delivery agent was converted to the sodium salt by adding one equivalent of sodium hydroxide. Solutions were vortexed, sonicated, and heated, and if necessary, additional sodium hydroxide was added in μl quantities to achieve uniform solubility. Solutions were adjusted to a pH of 3.5-8.5 by the addition of either hydrochloric acid or sodium hydroxide. Insulin stock (typically 66.7 μl) was then added to the delivery agent solution to obtain a final concentration of 0.5 mg/ml. After solubilization and drug addition, solutions were brought to final volume by the addition of deionized water.
(§2) Insulin was administered to male, Sprague-Dawley rats either alone or in combination with an Emisphere delivery agent by oral gavage (PO). Typically, rats were fasted for 18-24 hours prior to dosing. For dosing, a Rusch 8 French catheter was cut to 11 cm in length and adapted to fit a 1-ml syringe. The syringe was filled with dosing solution and the catheter was wiped dry of excess solution. The catheter was inserted into the rat mouth and fed down the esophagus (10.0 cm). The dosing solution was delivered by pressing the syringe plunger while holding the rat in an upright position.
In order to determine the pharmacodynamic response, a hand-held glucometer (OneTouch Ultra, LifeScan® (Johnson & Johnson, New Brunswick, N.J.)) was used to measure whole blood glucose after administration of insulin or insulin and delivery agent. Samples were collected either from the retroorbital sinus (see Sample collection and handling: Insulin) or from the tail artery (i.e. tail clip). For tail clipping, the tip of the tail was severed approximately 5 mm from the tip using a scalpel blade. After discarding the first drop of blood, a small sample (˜5-10 μl) was touched to the glucometer test strip (OneTouch Ultra, LifeScan) and a blood glucose reading was generated by the meter. For each subsequent sampling time point, the clot formed at the tip of the tail was broken up and a fresh sample was collected. Typically, samples were collected prior to dosing (time 0) and at 15, 30, 45, and 60 minutes after dosing.

[2] = PYY[3-36] liquid oral delivery in rats, serum PYY by radioimmunoassay; parameters: species or system Sprague-Dawley rats; conditions: rat, in vivo
Protocol: Oral gavage (PO) dosing solutions of delivery agent compound and Peptide YY residues 3-36 (PYY[3-36]) (available from Bachem California Inc. of Torrance, Calif.) in deionized water were prepared as follows.
PYY [3-36] stock solution (80 mg/ml) was prepared with deionized water. Oral dosing compositions containing 200 mg/kg of delivery agent compound and 0.3 mg/kg of PYY in aqueous solution were prepared. A solution of the compound 23 is made with one equivalent to sodium hydroxide to convert the free acid delivery agent to its sodium salt.
Male Sprague-Dawley rats weighing between 240-320 g were fasted up to a maximum 24 hours before the experiments and administered ketamine (44 mg/kg) and thorazine (1.5 mg/kg) by intramuscular injection before the test article administration. Afterwards, the anesthetized animals were administered the test article by oral gavage.
Blood samples were collected serially from the tail artery, or by cardiac puncture, typically at time=0, 15, 30, 45, 60 and 90 minutes. Serum PYY concentrations were quantified using a PYY[3-36] radioimmunoassay (Catalog #RK-059-02 from Phoenix Pharmaceuticals, Inc., Belmont, Calif.). Results from the animals in each group were averaged for each time point. The maximum of these averages (i.e., the mean peak serum PYY[3-36] concentration ±standard deviation (SD)) is reported below in Table 2.

[3] = Human recombinant insulin oral/intracolonic delivery in rats, serum insulin Cmax; type: in vivo, Sprague-Dawley rats
Protocol: as §1, §2
During blood sampling, rats were exposed briefly (˜10 sec) to carbon dioxide until prostrate, immediately prior to each sampling time point. For blood sampling, a 77-mm capillary tube was inserted into the retroorbital sinus. Typically, blood samples were collected prior to dosing (time 0) and at 15, 30, 45, and 60 minutes after dosing. Samples were collected into CAPIJECT® tubes (Terumo Corporation, Tokyo, Japan) containing a clot activator (red top, serum separator tubes). Samples were allowed to clot for ˜20 min at 4° C. After clotting, samples were centrifuged at 10,000 rpm for 4 minutes at 6° C. in order to separate the serum. Serum was collected into eppendorf tubes and frozen at −20° C. until assayed.

[4] = Oral and intracolonic heparin delivery in rats, APTT; type: in vivo, Sprague-Dawley rats
Protocol: (§3) Oral gavage (PO) and/or intracolonic (IC) dosing solutions containing a delivery agent compound and heparin sodium USP in 25% aqueous propylene glycol were prepared. The sodium salt of the compound was used. Typically, delivery agent compound and heparin (about 166-182 IU/mg) were mixed by vortex as dry powders. This dry mixture was dissolved in 25% v/v aqueous propylene glycol, vortexed and placed in a sonicator (about 37° C.). The pH was adjusted to about 7 (6.5 to 8.5) with aqueous NaOH (2N). The dosing solution was sonicated to produce a clear solution. The final volume was adjusted to 3.0 mL. The final delivery agent compound dose, heparin dose and volume dose amounts are listed below in Table 6.
(§4) The typical dosing and sampling protocols were as follows. Male Sprague-Dawley rats weighing between 275-350 g were fasted for 24 hours and were anesthetized with ketamine hydrochloride (88 mg/kg) intramuscularly immediately prior to dosing. A dosing group of five rats was administered one of the dosing solutions. […] Solution was administered by pressing the syringe plunger. […] The dosing catheter was inserted into the colon through the anus until the tube was no longer visible. The dosing solution was injected slowly into the colon.
Citrated blood samples were collected by cardiac puncture following the administration of ketamine (88 mg/kg), typically at time—0.25, 0.5, 1.0 and 1.5 hours. Heparin activity was determined by utilizing the activated partial thromboplastin time (APTT) according to the method of Henry, J. B., Clinical Diagnosis and Management by Laboratory Methods, Philadelphia, Pa., W.B. Saunders (1979). Previous studied indicated baseline values of about 20 sec. Results from the five rats in each group were averaged for each time point. The maximum is reported below in Table 6.

[5] = Human zinc insulin oral delivery in rats, blood glucose % change; type: in vivo, Sprague-Dawley rats; conditions: delivery agent compound dose 200 mg/kg, human zinc insulin dose 0.5 mg/kg
[6] = Intracolonic heparin delivery in rats, antifactor Xa; type: in vivo, Sprague-Dawley rats; conditions: IC, volume 1 ml/kg, heparin dose 25 mg/kg
Protocol: as §3, §4

[7] = IC, volume 1 ml/kg, compound dose 50 mg/kg, heparin dose 25 mg/kg
[8] = oral (liquid dose), delivery agent compound dose 100 mg/kg, insulin dose 1 mg/kg

For `CN(C(=O)CCC(=O)O)c1ccc(Cl)cc1` [Compound 29], the “Maximum % drop in glucose from control ± SD” value [1] was −29.25 ± 6.97%.
With `O=C(O)CCCCOc1ccc(OCc2ccccc2)cc1` [Compound 178, 5-(4-Benzyloxy-phenoxy)-pentanoic acid] the melting point was 127 to 128 °C.
For `Cc1ccc(OCCCC(=O)O)c(C(=O)c2ccccc2Cl)c1` [Compound 167, 4-(2-Chlorobenzoyl-4-methylphenoxy)butyric acid], the “Maximum % drop in glucose from control ± SD” value [1] was −21.2% and −17.7% and −26.2% and −17.8% and −22.7%.
With “PYY[3-36]: Peptide YY residues 3-36, available from Bachem California Inc.; the active agent, dosed alone” the “PYY[3-36] detected in blood” value [2] was “No significant PYY[3-36] was detected”.
With `O=C(O)Cc1ccc(OCc2ccccc2)cc1` [Compound 158] the melting point was 110 to 112 °C.
With `O=C(O)CCCCCCCCCCOc1ccccc1OCc1ccccc1` [Compound 177, 11-(2-Benzyloxyphenoxy)undecanoic acid] the melting point was 62 to 63 °C.
In the case of `O=C(O)CCCCCOc1ccccc1C(=O)c1ccccc1O` [Compound 160, 6-(2-(2-Hydroxybenzoyl)phenoxy)hexanoic acid], the Cmax ([3]; oral (liquid dose), delivery agent compound dose 200 mg/kg, insulin dose 0.5 mg/kg) is reported as “Cmax = 74 ± 7.5 μIU/mL”, the melting point is reported as 67 to 70 °C and the “Mean Peak APTT (sec) ± SD” value [4, 7] is reported as 131 ± 154 s.
In the case of `CC(CC(=O)O)CC(=O)N(c1ccccc1)C(C)C` (centres unmarked) [Compound 25], the “Maximum % drop in glucose from control ± SD” value [1] is reported as −14.81 ± 12.99%.
For `Cc1cc(C(=O)O)cc(C)c1OCc1ccccc1` [Compound 154], the “Glucose (% control)” value [5] was −7.9%.
For `COc1ccc(C(=O)CCCC(=O)O)cc1` [Compound 116, 5-(4-Methoxy-phenyl)-5-oxo-pentanoic acid], the melting point was 141 to 142 °C.
In the case of `CC(CC(=O)O)NC(=O)c1ccccc1O` (centres unmarked) [Compound 140, 3-(2-Hydroxy-benzoylamino)-butyric acid], the Cmax [3, 8] is reported as “Cmax = 81.16 ± 114.98 μIU/mL” and the “Mean Peak APTT (sec) ± SD” value [4, 7] is reported as 23.49 ± 6.12 s.
For `CC(CC(=O)O)CC(=O)N(C)c1ccccc1` (centres unmarked) [Compound 28], the “Maximum % drop in glucose from control ± SD” value [1] was −11.41 ± 18.92%.
With `CC(CC(=O)O)NC(=O)c1cc(Cl)cc(Cl)c1O` (centres unmarked) [Compound 142, 3-(3,5-Dichloro-2-hydroxy-benzoylamino)-butyric acid] the Cmax [3, 8] was “Cmax = 118.16 ± 72.75 μIU/mL”.
With `CC(C)N(C(=O)CCCCC(=O)O)c1ccccc1` [Compound 24] the “Maximum % drop in glucose from control ± SD” value [1] was −14.73 ± 17.64%.
With `CC(C)N(C(=O)CCCCCC(=O)O)c1ccccc1` [Compound 23, 7-[isopropyl(phenyl)amino]-7-oxoheptanoic acid] the melting point was 62 to 63 °C.
With `O=C(O)CCCOc1ccccc1C(=O)c1ccccc1O` [Compound 166, 4-(2-(2-Hydroxybenzoyl)phenoxy)butyric acid] the “Maximum % drop in glucose from control ± SD” value [1] was −5.7%.
For `CN(C(=O)CCCCCC(=O)O)c1ccccc1` [Compound 27], the “Maximum % drop in glucose from control ± SD” value [1] was −25.40 ± 30.61%.
For `O=C(O)CCCCCCCCC(=O)c1ccccc1O` [Compound 114, 10-(2-Hydroxy-phenyl)-10-oxo-decanoic acid], the melting point was 85 to 87 °C and the “Mean Peak APTT (sec) ± SD” value [4, 7] was 42.90 ± 8.70 s.
In the case of `CCN(C(=O)CC(C)CC(=O)O)c1ccccc1` (centres unmarked) [Compound 26], the “Maximum % drop in glucose from control ± SD” value [1] is reported as −25.93 ± 14.86%.
In the case of `COc1ccc(OCCCC(=O)O)c(C(=O)c2ccccc2O)c1` [Compound 165], the “Maximum % drop in glucose from control ± SD” value [1] is reported as −33.0%.
With `CC(CC(=O)O)NC(=O)c1cc(C(C)C)cc(C(C)C)c1O` (centres unmarked) [Compound 151, 3-(2-hydroxy-3,5-diisopropyl-benzoylamino)-butyric acid] the “antifactor Xa (mean peak ± SD)” value ([6]; compound dose 25 mg/kg) was 3.39 ± 3.07, the “antifactor Xa (mean peak ± SD)” value ([6]; compound dose 50 mg/kg) was 2.36 ± 1.27 and the “Mean Peak APTT (sec) ± SD” value ([4]; PO, volume 3 ml/kg, compound dose 300 mg/kg, heparin dose 100 mg/kg) was 252.09 ± 107.13 s.
For `O=C(O)Cc1ccccc1OCc1ccccc1` [Compound 152], the “Glucose (% control)” value [5] was −29.3%.
In the case of `CC(CC(=O)O)NC(=O)c1ccc(Cl)cc1O` (centres unmarked) [Compound 145, 3-(4-Chloro-2-hydroxy-benzoylamino)-butyric acid], the Cmax ([3]; intracolonic, delivery agent compound dose 50 mg/kg, insulin dose 0.1 mg/kg) is reported as “Cmax = 15.03 ± 7.80 μIU/mL”, the Cmax [3, 8] is reported as “Cmax = 3.92 ± 5.62 μIU/mL” and the “Mean Peak APTT (sec) ± SD” value [4, 7] is reported as 134.42 ± 99.03 s.
In the case of `CC(CC(=O)O)NC(=O)c1cc(Br)cc(Br)c1O` (centres unmarked) [Compound 141, 3-(3,5-Dibromo-2-hydroxy-benzoylamino)-butyric acid], the Cmax [3, 8] is reported as “Cmax = 204.05 ± 60.88 μIU/mL” and the “Mean Peak APTT (sec) ± SD” value [4, 7] is reported as 52.40 ± 21.54 s.
In the case of `COc1ccc(C(=O)O)cc1OCc1ccccc1` [Compound 153], the “Glucose (% control)” value [5] is reported as −7.1%.
In the case of `CC(CC(=O)O)NC(=O)c1cc(I)cc(I)c1O` (centres unmarked) [Compound 143, 3-(2-Hydroxy-3,5-diiodo-benzoylamino)-butyric acid], the “Mean Peak APTT (sec) ± SD” value [4, 7] is reported as 114.69 ± 121.62 s.
